“Also recorded” adds a separate entry of the source.
What was measured:
[1] = Stability of NMN in drinking water; assay type: physicochemical
[2] = 12 month-long NMN administration study: adverse effects and toxicity; assay type: in vivo
Experimental: A 12 month-long NMN administration study using wild-type mice under a regular chow-fed condition was conducted. NMN was administered through drinking water, and two doses of NMN, 100 and 300 mg/kg body weight/day, were tested. […] To assess beneficial and possible adverse effects of NMN, a variety of physiological parameters were periodically monitored, including body weight, body temperature, food and water intake, fed and fasted blood glucose levels, fed and fasted plasma lipid panels, and glucose and insulin tolerance, in NMN-administered and control mice. Blood chemistry, blood cell counts, urine strip test, and other physiological tests including physical activity test were also checked.

[3] = Contextual and cued fear conditioning tests in HFD-fed mice; assay type: in vivo, mouse
Experimental: Two groups of wild-type C57BL/6 mice at […] of age were fed a high fat diet (HFD) containing 42% of the total calories from fat (TD88137; Harlan Taklad). NMN at a dose of 300 mg/kg/day began to be administered through drinking water to one of the HFD-fed groups after 4 months of HFD feeding. The control group was fed a regular chow. After 8 months of HFD feeding with or without 4 months of NMN treatment, the contextual fear conditioning test, a sensitive test to examine the memory function that involves the hippocampus, was conducted for mice in these three groups.
FIG. 10 illustrates freezing responses of regular chow-fed control, HFD-fed, and HFD-fed, NMN-treated mice in contextual and cued fear conditioning tests on Day 1, Day 2 and Day3. NMN was administered at the dose of 300 mg/kg/day for 4 months. On Day 1 of the study, mice were given an auditory cue and then a mild electric foot shock, and a time of freezing was analyzed individually. On Day 2, the trained mice were placed into a training chamber with no tone cues, and their freezing responses were evaluated. […] The results were analyzed by one-way ANOVA with unweighted quadratic term. All values are presented as mean±SEM (n=17, 15, and 12 for regular chow-fed control, HFD-fed, and HFD-fed, NMN-treated mice, respectively). **P<0.01; *P<0.05.

NAMPT rod-CKO mice = assay: ERG rescue in NAMPT rod-CKO mice; assay type: in vivo, mouse
Description: The inventors examined the effect of selectively disrupting NAD biosynthesis within PR. The inventors utilized the cre-lox strategy to generate mice that had NAMPT conditionally deleted from either rods (NAMPT rod-CKO) or cones (NAMPT cone-CKO). The NAMPT fl/fl mice as well as the rhodopsin-cre and cone opsin-cre mice have been previously characterized. Both rod and cone cko mice are generated with normal Mendelian frequencies and are born normal with no observable systemic abnormalities (data not shown). All structural and functional analyses performed in CKO mice are analyzed in comparison to littermate controls. Rods constitute a majority of the PR neurons (97% of all photoreceptors). […] Neurosensory retinal degeneration was associated with secondary atrophy and pallor of the optic nerve (FIG. 29C).
The present inventors determined that exogenous supplementation with NMN is able to rescue PR neurons from cell death in CKO mice. Intraperitoneal (i.p.) delivery was chosen to obtain early and sustained levels of NMN. In these experiments, NAMPT rod-CKO mice were given NMN (150 mg/kg) or PBS i.p. daily starting at day P5. […] There was no effect of NMN on littermate control animals.

NC(=O)c1ccc[n+]([C@@H]2O[C@H](COP(=O)([O-])O)[C@@H](O)[C@H]2O)c1 [NMN, nicotinamide mononucleotide]
stability of NMN in drinking water ([1]; in solution): stable in solution | degradation of NMN in drinking water ([1]; room temperature): No significant degradation | adverse effects or signs of toxicity ([2]; 100 mg/kg or 300 mg/kg body weight/day in drinking water, 12 months): no adverse effects, such as malnutrition, or signs of toxicity were observed; also recorded: without showing any serious side effects | water intake ([2]; NMN in drinking water, through the experimental period): did not change significantly | adverse effect on glucose metabolism ([2]; long-term NMN administration): does not show any adverse effect on glucose metabolism | freezing responses, conditioning session and cued fear conditioning ([3]; Day 1 and Day 3, NMN 300 mg/kg/day for 4 months): did not differ from those of control mice | freezing responses, contextual fear conditioning test ([3]; Day 2, NMN 300 mg/kg/day for 4 months): indistinguishable from those of regular chow-fed control mice | effect on littermate control animals (NAMPT rod-CKO mice; NMN 150 mg/kg i.p. daily): no effect | photopic and scotopic function (ERG) (NAMPT rod-CKO mice; NMN 150 mg/kg i.p. daily from P5, ERG at 4 weeks, vs PBS): significant rescue

— patent US11793824B2, “Administration of nicotinamide mononucleotide in the treatment of disease” (Washington University, priority 2013, dated 2023)
